Results as given in article PMC4503980 (Scientific Reports, 2015).

Legend:
[1] = biological target: T1, nNOS-PDZ/PSD-95-PDZ2 interaction (Mus musculus, UniProt Q9Z0J4); test: ITC of nNOS-PDZ/PSD-95-PDZ2 interaction in the presence of compound; type: binding; conditions: 1 mM IC87201 present; significant interference, reduced reliability
T1 construct: nNOS-PDZ (residues 12–134, Uniprot Q9JJ30); PSD-95-PDZ2 (157–249, human); made in house
Experimental: Unlike the FP experiments above, which rely on inhibition of interaction partners, the ITC method is a direct measure of binding, regardless of where it takes place on the protein.
Figure 5 ITC curves. Plots showing titrations into PDZ domains fitted to a one-site model.
All ITC experiments were carried out at 25 °C on an iTC200 Microcalorimeter (GE Healthcare) with a 200 μL cell capacity and 40 μL syringe volume. The buffer used for all solutions was 20 mM phosphate buffer at pH 6.3; each experiment consisted of an initial injection of 0.5 μL, followed by fifteen 2.39 μL injections before a final injection of 1.89 μL. […] In both cases no heat exchange was detected, confirming that there was appropriate match of buffer conditions with no indication of dilution effects. […] For the nNOS-PDZ/PSD-95-PDZ2 interaction, 100 μM PDZ2 in the cell was titrated with 750 μM nNOS-PDZ. […] All data was analysed using the Origin®7 software programme.

[2] = system: PSD-95/GluN2B; set-up: method as in PMID 21102461; conditions: cited from earlier work

T1 sequence (Q9Z0J4 12-134): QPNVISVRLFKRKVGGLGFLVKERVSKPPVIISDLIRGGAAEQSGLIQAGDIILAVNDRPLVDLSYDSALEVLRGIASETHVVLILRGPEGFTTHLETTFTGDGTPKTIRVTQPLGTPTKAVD

Row | Compound | effect on affinity between nNOS-PDZ and PSD-95-PDZ2 (ITC) [1] | inhibition of PSD-95/GluN2B [2]
1 | Oc1c(Cl)cc(Cl)cc1CNc1ccc2[nH]nnc2c1 [IC87201, 2-((1H-Benzo[d][1–3]triazol-5-ylamino)methyl)-4-6-dichlorophenol] | appeared to be affected | –
2 | O=C(O)c1ccc(NCc2cc(Cl)cc(Cl)c2O)cc1O [ZL006, 4-((3,5-Dichloro-2-hydroxybenzyl)amino)-2-hydroxybenzoic acid] | – | not inhibited
